Assay results taken from the NIST ThermoML archive (doi:10.1016/j.tca.2011.08.002).

Assays:
[1] = xn = mol fraction of the nth substance listed; conditions: 101 kPa, Liquid, Vibrating tube method, x1 = 1
[2] = refractive index (Na D-line) (dimensionless); xn = mol fraction of the nth substance listed; conditions: 101 kPa, Liquid, Standard Abbe refractometry, x1 = 1
[3] = 101 kPa, Liquid, Vibrating tube method
[4] = refractive index (Na D-line) (dimensionless); conditions: 101.33 kPa, Liquid, Standard Abbe refractometry

CCCCCO [pentan-1-ol] + C1CCC(NC2CCCCC2)CC1
Conditions | mass density, [1] [kg/m3] | refractive index, [2]
288.15 K | 818.282 | 1.41192
293.15 K | 814.635 | 1.40994
298.15 K | 810.968 | 1.40796
303.15 K | 807.278 | 1.40595
308.15 K | 803.558 | 1.40388
313.15 K | 799.817 | 1.40189
318.15 K | 796.001 | 1.39987
323.15 K | 792.166 | 1.39776

CC(C)(C)O [2-methylpropan-2-ol] + C1CCC(NC2CCCCC2)CC1
Conditions | mass density, 303.15 K [kg/m3] | mass density, 308.15 K [kg/m3] | mass density, 313.15 K [kg/m3] | mass density, 318.15 K [kg/m3] | mass density, 323.15 K [kg/m3] | refractive index, 303.15 K | refractive index, 308.15 K | refractive index, 313.15 K | refractive index, 318.15 K | refractive index, 323.15 K
[1] | 775.412 | 770.193 | 764.884 | 759.488 | 754.015 | – | – | – | – | –
[2] | – | – | – | – | – | 1.38222 | 1.37947 | 1.37667 | 1.37384 | 1.37097

CCCO [propan-1-ol] + C1CCC(NC2CCCCC2)CC1
Conditions | mass density, [1] [kg/m3] | refractive index, [2]
288.15 K | 807.69 | 1.38785
293.15 K | 803.703 | 1.38578
298.15 K | 799.692 | 1.38364
303.15 K | 795.65 | 1.38153
308.15 K | 791.576 | 1.37929
313.15 K | 787.466 | 1.37702
318.15 K | 783.309 | 1.37483
323.15 K | 779.095 | 1.37252

CCC(C)O (centres undefined) [butan-2-ol]
Conditions | mass density, [3] [kg/m3] | refractive index, [4]
288.15 K | 810.689 | 1.39951
293.15 K | 806.646 | 1.39736
298.15 K | 802.528 | 1.39515
303.15 K | 798.326 | 1.39293
308.15 K | 794.03 | 1.39064
313.15 K | 789.632 | 1.38832
318.15 K | 785.117 | 1.38596
323.15 K | 780.515 | 1.38352

CC(C)(C)O [2-methylpropan-2-ol]
Conditions | mass density, 303.15 K [kg/m3] | mass density, 308.15 K [kg/m3] | mass density, 313.15 K [kg/m3] | mass density, 318.15 K [kg/m3] | mass density, 323.15 K [kg/m3] | refractive index, 303.15 K | refractive index, 308.15 K | refractive index, 313.15 K | refractive index, 318.15 K | refractive index, 323.15 K
[3] | 775.412 | 770.193 | 764.884 | 759.488 | 754.015 | – | – | – | – | –
[4] | – | – | – | – | – | 1.38222 | 1.37947 | 1.37667 | 1.37384 | 1.37097

CCCO [propan-1-ol]
Conditions | mass density, [3] [kg/m3] | refractive index, [4]
288.15 K | 807.69 | 1.38785
293.15 K | 803.703 | 1.38578
298.15 K | 799.692 | 1.38364
303.15 K | 795.65 | 1.38153
308.15 K | 791.576 | 1.37929
313.15 K | 787.466 | 1.37702
318.15 K | 783.309 | 1.37483
323.15 K | 779.095 | 1.37252

CCCCCO [pentan-1-ol]
Conditions | mass density, [3] [kg/m3] | refractive index, [4]
288.15 K | 818.282 | 1.41192
293.15 K | 814.635 | 1.40994
298.15 K | 810.968 | 1.40796
303.15 K | 807.278 | 1.40595
308.15 K | 803.558 | 1.40388
313.15 K | 799.817 | 1.40189
318.15 K | 796.001 | 1.39987
323.15 K | 792.166 | 1.39776

CCCCO [butan-1-ol] + C1CCC(NC2CCCCC2)CC1
Conditions | mass density, [1] [kg/m3] | refractive index, [2]
288.15 K | 813.373 | 1.40135
293.15 K | 809.573 | 1.39932
298.15 K | 805.762 | 1.3973
303.15 K | 801.923 | 1.39523
308.15 K | 798.053 | 1.39318
313.15 K | 794.147 | 1.3911
318.15 K | 790.231 | 1.38901
323.15 K | 786.238 | 1.38688

CCC(C)O (centres undefined) [butan-2-ol] + C1CCC(NC2CCCCC2)CC1
Conditions | mass density, [1] [kg/m3] | refractive index, [2]
288.15 K | 810.689 | 1.39951
293.15 K | 806.646 | 1.39736
298.15 K | 802.528 | 1.39515
303.15 K | 798.326 | 1.39293
308.15 K | 794.03 | 1.39064
313.15 K | 789.632 | 1.38832
318.15 K | 785.117 | 1.38596
323.15 K | 780.515 | 1.38352

C1CCC(NC2CCCCC2)CC1 [N-cyclohexylcyclohexanamine]
Conditions | mass density, [3] [kg/m3] | refractive index, [4]
288.15 K | 915.498 | 1.48636
293.15 K | 911.705 | 1.48416
298.15 K | 907.923 | 1.48198
303.15 K | 904.144 | 1.47978
308.15 K | 900.372 | 1.47761
313.15 K | 896.608 | 1.47562
318.15 K | 892.847 | 1.47347
323.15 K | 889.089 | 1.47134

CCCCO [butan-1-ol]
Conditions | mass density, [3] [kg/m3] | refractive index, [4]
288.15 K | 813.373 | 1.40135
293.15 K | 809.573 | 1.39932
298.15 K | 805.762 | 1.3973
303.15 K | 801.923 | 1.39523
308.15 K | 798.053 | 1.39318
313.15 K | 794.147 | 1.3911
318.15 K | 790.231 | 1.38901
323.15 K | 786.238 | 1.38688
